From article PMC6950218 (Journal of Medicinal Chemistry, 2011)
Read-outs that look alike come from different tables or passages of the source. Blank lines part the entries; values can stand above or below the molecule they belong to.

Tests used:
[1] = system: Caco-2; details: for Caco-2 A–B: apical to basolateral; for Caco-2 B–A: basolateral to apical
[2] = system: P. falciparum strain W2; assay: Antimalarial proliferation inhibition assay; format: cell-based, Plasmodium falciparum; details: mean of at least two experiments
[3] = not given; remark: listed apart in the source
[4] = system: P. falciparum strain 3D7; assay: Antimalarial proliferation inhibition assay; format: cell-based, Plasmodium falciparum; details: for IC50: mean of at least two experiments
[5] = not given; remark: listed apart in the source
[6] = not given; remark: listed apart in the source
[7] = system: Huh7; assay: Cytotoxicity Huh7; format: cell-based
[8] = system: HEp2; assay: Cytotoxicity HEp2; format: cell-based
[9] = mini-Ames test
[10] = system: HeLa; assay: Cytotoxicity HeLa; format: cell-based
[11] = system: Ba/F3; assay: Cytotoxicity Ba/F3; format: cell-based
[12] = system: CHO; assay: Cytotoxicity CHO; format: cell-based
[13] = Micronucleus test
[14] = Maximum tolerable dose test in rats; details: rats in vivo
[15] = Plasmodium falciparum, W2, read-out: P. falciparum strain IC50 W2, resynthesized powders (data in brackets)
[16] = resynthesized powders (data in brackets)
[17] = Plasmodium falciparum, 3D7, read-out: P. falciparum strain IC50 3D7, resynthesized powders (data in brackets)

PAMPA (% absorbed): 52 % absorbed | Caco-2 A–B [1]: 0.44 cm/s × 10^6 | Caco-2 B–A [1]: 1.25 cm/s × 10^6
Molecule: NCC(=O)N1CCn2c(nc(-c3ccc(F)cc3)c2Nc2ccc(Cl)cc2)C1 [Compound 27, 2-Amino-1-(3-(4-chlorophenylamino)-2-(4-fluorophenyl)-5,6-dihydroimidazo[1,2-a]pyrazin-7(8H)-yl)ethanone]

PAMPA (% absorbed): low | hepatic microsome metabolic stability (extraction ratio) mouse [3]: 0.21 | hepatic microsome metabolic stability (extraction ratio) human [5]: 0.21 | hepatic microsome metabolic stability (extraction ratio) rat [6]: 0.38 | Caco-2 A–B [1]: 0.99 cm/s × 10^6 | Caco-2 B–A [1]: 2.99 cm/s × 10^6
Molecule: 3-Amino-1-(2-(4-fluorophenyl)-3-(4-fluorophenylamino)-5,6-dihydroimidazo[1,2-a]pyrazin-7(8H)-yl)propan-1-one [Compound 29]
IC50 ([2]; read-out: P. falciparum strain IC50 W2): 23 nM | IC50 ([4]; read-out: P. falciparum strain IC50 3D7): 30 nM

Molecule: NCC(=O)N1CCn2c(nc(-c3ccccc3)c2Nc2ccc3c(c2)OCO3)C1 [Compound 1a, 2-Amino-1-(3-(benzo[d][1,3]dioxol-5-ylamino)-2-phenyl-5,6-dihydroimidazo[1,2-a]pyrazin-7(8H)-yl)ethanone]
IC50 [2, 15]: 473 nM | cyotoxicity Huh7 ([7]; HTS DMSO stock solutions): > 10 µM | cyotoxicity Huh7 [7, 16]: > 100 µM | IC50 [4, 17]: 460 nM

PAMPA (% absorbed): 52 % absorbed | Caco-2 A–B [1]: 0.70 cm/s × 10^6 | Caco-2 B–A [1]: 2.55 cm/s × 10^6
Molecule: NCC(=O)N1CCn2c(nc(-c3ccc(F)cc3)c2Nc2ccc(F)cc2)C1 [Compound 5, 2-Amino-1-(2-(4-fluorophenyl)-3-(4-fluorophenylamino)-5,6-dihydroimidazo[1,2-a]pyrazin-7(8H)-yl)ethanone]
fold more potent than the original hit compound 1a [4]: 4 fold

PAMPA (% absorbed): 94 % absorbed | Caco-2 A–B [1]: 0.84 cm/s × 10^6 | Caco-2 B–A [1]: 0.87 cm/s × 10^6
Molecule: CC(C)(N)C(=O)N1CCn2c(nc(-c3ccc(F)cc3)c2Nc2ccc(Cl)c(F)c2)C1 [Compound 32, 2-Amino-1-(3-(4-chloro-3-fluorophenylamino)-2-(4-fluorophenyl)-5,6-dihydroimidazo[1,2-a]pyrazin-7(8H)-yl)-2-methylpropan-1-one]

Molecule: NC(Cc1ccccc1)C(=O)N1CCn2c(nc(-c3ccccc3)c2Nc2ccc3c(c2)OCO3)C1 (stereo not drawn) [Compound 1b, 2-Amino-1-(3-(benzo[d][1,3]dioxol-5-ylamino)-2-phenyl-5,6-dihydroimidazo[1,2-a]pyrazin-7(8H)-yl)-3-phenylpropan-1-one]
IC50 [2, 15]: 122 nM | cyotoxicity Huh7 ([7]; HTS DMSO stock solutions): > 10 µM | cyotoxicity Huh7 [7, 16]: > 79 µM | IC50 [4, 17]: 119 nM

PAMPA (% absorbed): low | Caco-2 A–B [1]: 0.56 cm/s × 10^6 | Caco-2 B–A [1]: 2.32 cm/s × 10^6
Molecule: NCC(=O)N1CCn2c(nc(-c3cccc(F)c3)c2Nc2ccc(F)cc2)C1 [Compound 18, 2-Amino-1-(3-((4-fluorophenyl)amino)-2-(3-fluorophenyl)-5,6-dihydroimidazo[1,2-a]pyrazin-7(8H)-yl)ethanone]

PAMPA (% absorbed): 89 % absorbed | Caco-2 A–B [1]: 1.46 cm/s × 10^6 | Caco-2 B–A [1]: 1.86 cm/s × 10^6
Molecule: CC(C)(N)C(=O)N1CCn2c(nc(-c3ccc(F)cc3)c2Nc2ccc(Cl)cc2)C1 [Compound 28, 2-Amino-1-(3-(4-chlorophenylamino)-2-(4-fluorophenyl)-5,6-dihydroimidazo[1,2-a]pyrazin-7(8H)-yl)-2-methylpropan-1-one]

PAMPA (% absorbed): 86 % absorbed | Caco-2 A–B [1]: 0.14 cm/s × 10^6 | Caco-2 B–A [1]: 1.03 cm/s × 10^6
Molecule: CC(C)(N)C(=O)N1CCn2c(nc(-c3ccc(F)cc3)c2Nc2ccc(F)c(F)c2)C1 [Compound 30, 2-Amino-1-(3-(3,4-difluorophenylamino)-2-(4-fluorophenyl)-5,6-dihydroimidazo[1,2-a]pyrazin-7(8H)-yl)-2-methylpropan-1-one]
cytotoxicity TC50 HEp2 [8]: greater than 12 μM | mini-Ames test [9]: negative | cytotoxicity TC50 Huh7 [7]: greater than 12 μM | cytotoxicity TC50 HeLa [10]: greater than 12 μM | cytotoxicity TC50 Ba/F3 [11]: greater than 12 μM | cytotoxicity TC50 CHO [12]: greater than 12 μM | micronucleus test [13]: negative

Molecule: CC(C)CC(N)C(=O)N1CCn2c(nc(-c3ccccc3)c2Nc2ccc3c(c2)OCO3)C1 (stereo not drawn) [Compound 1c, 2-Amino-1-(3-(benzo[d][1,3]dioxol-5-ylamino)-2-phenyl-5,6-dihydroimidazo[1,2-a]pyrazin-7(8H)-yl)-4-methylpentan-1-one]
IC50 [2, 15]: 29 nM | cyotoxicity Huh7 ([7]; HTS DMSO stock solutions): > 10 µM | cyotoxicity Huh7 [7, 16]: 42 µM | IC50 [4, 17]: 30 nM

Molecule: CC(C)(N)C(=O)N1CCn2c(nc(-c3ccc(F)cc3)c2Nc2ccc(F)cc2)C1 [Compound 11, 2-Amino-1-(2-(4-fluorophenyl)-3-(4-fluorophenylamino)-5,6-dihydroimidazo[1,2-a]pyrazin-7(8H)-yl)-2-methylpropan-1-one]
cytotoxicity TC50 HEp2 [8]: greater than 12 μM | PAMPA (% absorbed): 81 % absorbed | maximum tolerable dose test [14]: no gross effects at doses up to 500 mg/kg | cytotoxicity TC50 Huh7 [7]: greater than 12 μM | cytotoxicity TC50 HeLa [10]: greater than 12 μM | cytotoxicity TC50 CHO [12]: greater than 12 μM | Caco-2 A–B [1]: 3.05 cm/s × 10^6 | Caco-2 B–A [1]: 8.38 cm/s × 10^6
